The text below walks through data of ChEMBL document CHEMBL1770065, “Discovery of a clinical candidate from the structurally unique dioxa-bicyclo[3.2.1]octane class of sodium-dependent glucose cotransporter 2 inhibitors” (J Med Chem, 2011).

Data set [1] is described as follows: Volume of distribution at steady state in Sprague-Dawley rat at 2 mg/kg, iv. The format is ADME, organism-based. The arrangement: dose 2 mg/kg, route intravenous. The following applies: in vivo, read-out: Vdss.
The target in data set [2] is T1, Solute carrier family 22 member 2 (Homo sapiens, UniProt O15244).
T1 sequence (O15244 whole entry): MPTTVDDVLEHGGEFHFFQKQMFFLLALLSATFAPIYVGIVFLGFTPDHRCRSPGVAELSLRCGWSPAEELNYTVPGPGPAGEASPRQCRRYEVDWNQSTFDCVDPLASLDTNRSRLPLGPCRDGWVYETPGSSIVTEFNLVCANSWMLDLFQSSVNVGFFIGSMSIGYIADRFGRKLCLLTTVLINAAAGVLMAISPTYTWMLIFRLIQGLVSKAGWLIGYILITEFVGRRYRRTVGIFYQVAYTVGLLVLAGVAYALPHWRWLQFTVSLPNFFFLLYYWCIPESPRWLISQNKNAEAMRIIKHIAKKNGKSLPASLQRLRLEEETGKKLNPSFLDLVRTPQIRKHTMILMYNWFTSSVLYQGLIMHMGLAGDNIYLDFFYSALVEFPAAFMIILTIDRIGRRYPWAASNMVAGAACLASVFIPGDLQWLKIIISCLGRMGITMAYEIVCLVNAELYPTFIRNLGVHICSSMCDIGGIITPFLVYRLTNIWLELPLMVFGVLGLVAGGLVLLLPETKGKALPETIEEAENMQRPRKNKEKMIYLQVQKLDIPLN
Briefly: Inhibition of human OCT2.

Data set [3] can be described thus: Oral bioavailability in Sprague-Dawley rat at 5 mg/kg. The following applies: in vivo. The data set is classed as ADME, organism-based.
Data set [4] deals with T2, Solute carrier family 22 member 2 (Rattus norvegicus, UniProt Q9R0W2).
T2 sequence (Q9R0W2 whole entry): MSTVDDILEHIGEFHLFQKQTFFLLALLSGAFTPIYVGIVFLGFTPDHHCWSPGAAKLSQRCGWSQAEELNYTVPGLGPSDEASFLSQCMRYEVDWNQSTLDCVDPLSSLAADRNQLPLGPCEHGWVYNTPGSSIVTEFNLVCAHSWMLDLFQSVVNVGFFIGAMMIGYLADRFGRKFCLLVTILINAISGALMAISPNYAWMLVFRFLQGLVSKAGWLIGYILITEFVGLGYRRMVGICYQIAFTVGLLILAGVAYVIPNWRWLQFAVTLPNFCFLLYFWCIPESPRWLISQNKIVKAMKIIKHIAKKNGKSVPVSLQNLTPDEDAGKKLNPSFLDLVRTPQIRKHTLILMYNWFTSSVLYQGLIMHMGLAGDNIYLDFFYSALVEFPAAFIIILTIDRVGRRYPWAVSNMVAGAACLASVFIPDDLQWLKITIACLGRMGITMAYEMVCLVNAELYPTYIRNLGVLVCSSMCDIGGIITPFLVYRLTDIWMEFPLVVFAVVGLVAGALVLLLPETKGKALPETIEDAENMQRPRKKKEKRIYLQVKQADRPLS
Briefly: Inhibition of rat OCT2 expressed in HEK293 cells. The format is cell-based.

Data set [5] deals with Rattus norvegicus. As to the kind of experiment: Antidiabetic activity in po dosed Sprague-Dawley rat assessed as increase of urinary glucose excretion after 24 hrs. The following applies: Urine. The data set is classed as functional, organism-based.
For data set [6], the system named is Rattus norvegicus. As to the kind of experiment: Average free plasma concentration in Sprague-Dawley rat at 30 mg/kg, po after 24 hrs. The data set is classed as ADME, organism-based. The arrangement: dose 30 mg/kg, route oral. Conditions: in vivo; call rule not given here.
In data set [7] the test system is Rattus norvegicus. As to the kind of experiment: fAUC (0 to 24 hrs) in Sprague-Dawley rat at 30 mg/kg, po after 24 hrs. The format is ADME, organism-based. The arrangement: dose 30 mg/kg, route oral. The following applies: in vivo.
Data set [8] deals with T3, Sodium/glucose cotransporter 2 (Rattus norvegicus, UniProt P53792).
T3 sequence (P53792 whole entry): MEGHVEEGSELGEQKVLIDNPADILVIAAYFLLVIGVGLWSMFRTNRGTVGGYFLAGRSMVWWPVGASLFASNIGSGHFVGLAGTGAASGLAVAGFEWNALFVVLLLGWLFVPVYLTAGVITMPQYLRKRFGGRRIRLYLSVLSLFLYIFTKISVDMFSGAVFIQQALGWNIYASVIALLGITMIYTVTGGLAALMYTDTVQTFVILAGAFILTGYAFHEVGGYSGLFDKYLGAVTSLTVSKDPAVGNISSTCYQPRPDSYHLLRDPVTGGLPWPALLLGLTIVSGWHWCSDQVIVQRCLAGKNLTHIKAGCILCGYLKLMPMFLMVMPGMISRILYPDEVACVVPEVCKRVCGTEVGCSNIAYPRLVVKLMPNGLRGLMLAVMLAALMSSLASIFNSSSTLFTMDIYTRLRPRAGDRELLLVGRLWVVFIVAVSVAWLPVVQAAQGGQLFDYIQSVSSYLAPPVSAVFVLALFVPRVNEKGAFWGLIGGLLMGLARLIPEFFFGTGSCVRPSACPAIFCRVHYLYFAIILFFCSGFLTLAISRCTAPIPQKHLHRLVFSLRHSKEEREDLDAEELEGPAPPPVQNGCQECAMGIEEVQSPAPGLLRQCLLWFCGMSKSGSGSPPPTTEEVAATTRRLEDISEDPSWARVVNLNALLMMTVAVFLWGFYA
Briefly: Inhibition of rat SGLT2.

Data set [9] concerns Rattus norvegicus. As to the kind of experiment: Inhibition of SGLT2 in po dosed Sprague-Dawley rat after 24 hrs. The format is functional, organism-based.
Data set [10] in a line: Lipophilicity, log D of the compound. The data set is classed as physicochemical. Conditions: octanol/water.
In data set [11] the target is T4, Sodium/glucose cotransporter 2 (Homo sapiens, UniProt P31639).
T4 sequence (P31639 whole entry): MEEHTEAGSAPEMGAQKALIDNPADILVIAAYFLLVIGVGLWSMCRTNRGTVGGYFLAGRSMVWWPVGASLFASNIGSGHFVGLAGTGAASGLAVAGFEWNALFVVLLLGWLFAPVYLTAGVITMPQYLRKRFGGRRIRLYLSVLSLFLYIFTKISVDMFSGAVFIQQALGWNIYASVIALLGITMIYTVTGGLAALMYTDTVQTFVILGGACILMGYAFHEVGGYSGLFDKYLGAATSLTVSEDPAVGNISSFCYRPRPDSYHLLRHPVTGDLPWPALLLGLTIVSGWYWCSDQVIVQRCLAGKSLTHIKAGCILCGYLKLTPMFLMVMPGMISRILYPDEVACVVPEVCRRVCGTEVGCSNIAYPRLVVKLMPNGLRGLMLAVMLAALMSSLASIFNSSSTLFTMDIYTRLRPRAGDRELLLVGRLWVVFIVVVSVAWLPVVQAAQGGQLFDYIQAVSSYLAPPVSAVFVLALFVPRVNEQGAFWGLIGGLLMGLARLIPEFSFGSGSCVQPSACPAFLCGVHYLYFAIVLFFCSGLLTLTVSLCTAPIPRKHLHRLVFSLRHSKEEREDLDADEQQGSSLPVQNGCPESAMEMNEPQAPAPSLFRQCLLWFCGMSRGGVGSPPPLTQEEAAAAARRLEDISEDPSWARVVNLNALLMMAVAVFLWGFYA
As to the kind of experiment: Inhibition of human SGLT2 expressed in CHO cells assessed as inhibition of methyl alpha-D-glucopyranoside uptake after 1 hr. The data set is classed as cell-based.

A further data set relates to Plasma. As to the kind of experiment: Fraction unbound in human plasma at 1000 ng/mL by equilibrium dialysis method. The format is ADME, cell-free. A general note: In equilibrium dialysis only unbound substance equilibrates across the membrane.
Data set [12] can be described thus: Apparent intrinsic clearance in human liver microsomes assessed per mg of protein. The data set is classed as ADME, Microsome. (Liver microsomes are a subcellular fraction often used to study metabolism.)

pIC50: −log10 of the molar value.

For orientation: bioavailability means the share of a dose that reaches the circulation, judged against a reference dose that is usually intravenous. Low readings indicate poor availability, high ones good availability. By pIC50 is commonly meant the negative decadic logarithm of the IC50, by convention in mol/L. As a reminder, the logD is the decadic logarithm of the distribution of all forms, ionised or not, between an organic phase and buffer at a given pH. Broadly, the microsomal CLint is the rate of metabolic loss divided by the concentration. Turning to `CCOc1ccc(Cc2cc([C@]34OC[C@](CO)(O3)[C@@H](O)[C@H](O)[C@H]4O)ccc2Cl)cc1` [ERTUGLIFLOZIN], the Vd in data set [1] was 1.13 L/kg. Besides, the “inhibition (INH)” value in [2] and in data set [4] was “Not Active” each time. For the same compound, the bioavailability in data set [3] is 69%. Besides, the Activity entry with Rattus norvegicus [5] was “Dose-dependent effect”. The Cp in the data set on Rattus norvegicus [6] is recorded as 408 nM. In the data set with Rattus norvegicus [7], this compound had a fAUC of 4280 ng·h/mL. Also, the negative-log IC50 (pIC50) in data set [8] is 8.94; with Rattus norvegicus [9] it was 8.74; in data set [11] it was 9.06. This compound also registered a pH-dependent lipophilicity (logD) in data set [10] of 3.6. Besides, the Fu in the data set with Plasma is 6.4%. Also, in [12], the microsomal CLint turned out to be 12 µL/min/mg.
